Patent publication US4311791A, “Automated kinetic determination of lactate dehydrogenase isoenzymes in serum” (priority 1980, dated 1982)

Assays:
LD from human heart [1] = biological target: T1, LD from human heart (Homo sapiens, UniProt P07195); test: Inhibition of LD activity in human heart extract by high pyruvate, without preincubation (present method); type: biochemical
T1 construct: Human tissue extracts were prepared by sonic disruption; from tissue; host or cells: human heart, crude extract (sonicated, supernatant of centrifugation)
T1 sequence (P07195 2-334): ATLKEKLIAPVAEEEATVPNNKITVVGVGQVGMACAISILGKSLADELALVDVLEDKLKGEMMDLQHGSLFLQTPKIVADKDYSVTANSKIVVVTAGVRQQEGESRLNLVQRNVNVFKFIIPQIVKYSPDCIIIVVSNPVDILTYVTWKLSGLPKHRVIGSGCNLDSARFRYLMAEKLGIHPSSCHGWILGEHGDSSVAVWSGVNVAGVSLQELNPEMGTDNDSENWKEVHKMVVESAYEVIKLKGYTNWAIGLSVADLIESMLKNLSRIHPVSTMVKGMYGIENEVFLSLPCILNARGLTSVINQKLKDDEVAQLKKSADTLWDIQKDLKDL
Experimental: (§1) Preparation of tissue. Human tissue extracts were prepared by sonic disruption (at 4° l C. for 1 min.) of 1 g (wet weight) of tissue in 9 ml of potassium phosphate buffer (0.1 mol/liter, pH 7.0). The homogenates were centrifuged at 4° C. at 5×10^4 g for 10 min.; and the superiors were promptly examined for LD activity and stored at -80° C.
(§2) Assay for total LD activity. The measurements were at 340 nm and 25° C. in a Model 240 (Gilford Instrument, Oberlin, Ohio 44074) digital kinetic spectrophotometer when manual determinations were needed to supply data for calibration curves with purified enzymes or with tissue extracts, and for serum assays in the preliminary stages of developing the method. Sera were assayed at 25° C. in a centrifugal analyzer (GEMSAEC; Electronucleonics, Inc., Fairfield, N.J. 07006) after the optimum conditions were known to be suitable for manual determinations. For automated determinations 500 ul of pyruvate reaction mixture and 50 ul of serum (an 11-fold dilution of the serum) were required. Conditions for measuring total LD activity were: 0.34 mmol of pyruvate and 0.13 mmcl of NADH per liter of the phosphate buffer. The molar absorptivity 6.22×10^3 liter mol^-1 cm^-1 for NADH was used in calculating enzyme activity in IUB units.
(§3) Kinetic determination of isoenzymes. LD's are inhibited by their substrate, the H-type LD being inhibited by pyruvate to a greater extent than the M-type LD. This inhibition, related to the formation of an abortive ternary complex, was the basis of the method that has been used to distinguish the heart enzyme from the muscle enzyme after preincubation. […]

LD from human spleen [2] = test: Inhibition of human spleen LD, present method; type: biochemical; details: mean ± 2 SD, at least seven sources
Experimental: as §1, §2
(§4) Kinetic determination of isoenzymes. […]

LD from human brain [3] = details: previously reported, mean ± 2 SD; cited from earlier work
rabbit muscle LD = test: Activity/inhibition of crystalline rabbit muscle LD at high pyruvate; type: biochemical
Experimental: as §2
(§5) Assay conditions. Studies of the pH dependence of the inhibition of chicken heart LD at an initial substrate concentration of 3.4 mmol/liter pyruvate (control rate, 0.1 absorbance unit change per minute at 0.34 mmol/liter pyruvate) indicated the pH for maximum inhibition of LD activity to be pH 7, although pH 6.5 was also suitable for the inhibition. […]

LD from human kidney [4] = test: Inhibition of human kidney LD, present method; type: biochemical; details: mean ± 2 SD, at least seven sources
Experimental: as §1, §2, §4

LD from human heart [5] = biological target: T1, LD from human heart; details: previously reported, mean ± 2 SD; cited from earlier work
chicken heart LD = chicken heart LD (Gallus gallus, UniProt P00337); test: Inhibition of chicken heart LD by pyruvate; type: biochemical; details: 3.4 mmol/liter pyruvate
chicken heart LD, sequence (P00337 whole entry): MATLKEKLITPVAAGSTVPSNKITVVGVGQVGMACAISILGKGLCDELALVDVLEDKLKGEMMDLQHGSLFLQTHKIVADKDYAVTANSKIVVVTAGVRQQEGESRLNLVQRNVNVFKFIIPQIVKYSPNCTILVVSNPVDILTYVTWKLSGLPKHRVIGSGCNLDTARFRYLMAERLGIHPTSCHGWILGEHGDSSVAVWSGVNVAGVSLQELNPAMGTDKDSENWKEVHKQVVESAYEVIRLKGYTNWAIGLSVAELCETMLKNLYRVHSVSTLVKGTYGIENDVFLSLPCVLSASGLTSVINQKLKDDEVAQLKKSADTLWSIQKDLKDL
Experimental: as §2, §5

LD from human muscle [6] = test: Inhibition of human muscle LD, present method; type: biochemical; details: mean ± 2 SD, at least seven sources
Experimental: as §1, §2, §4

LD from human muscle [7] = details: previously reported, mean ± 2 SD; cited from earlier work
M-type LD = test: Kinetic determination of isoenzymes: inhibition of human M-type LD without preincubation; type: biochemical; details: 5 mmol pyruvate and 0.13 mmol NADH per liter, phosphate buffer pH 7.0
Experimental: (§6) Kinetic determination of isoenzymes. LD's are inhibited by their substrate, the H-type LD being inhibited by pyruvate to a greater extent than the M-type LD. This inhibition, related to the formation of an abortive ternary complex, was the basis of the method that has been used to distinguish the heart enzyme from the muscle enzyme after preincubation.
(§7) Conditions for inhibiting the human LD activity without any preincubation were: 5 mmol of pyruvate and 0.13 mmol of NADH per liter of 100 l mmol/liter potassium phosphate buffer, pH 7.0.

LD from human kidney [8] = details: previously reported, mean ± 2 SD; cited from earlier work
H-type LD = test: Kinetic determination of isoenzymes: inhibition of human H-type LD without preincubation; type: biochemical; details: 5 mmol pyruvate and 0.13 mmol NADH per liter, phosphate buffer pH 7.0
Experimental: as §6, §7

LD from human brain [9] = test: Inhibition of human brain LD, present method; type: biochemical; details: mean ± 2 SD, at least seven sources
Experimental: as §1, §2, §4

LD from human spleen [10] = details: previously reported, mean ± 2 SD; cited from earlier work
LD from human liver [11] = biological target: T2, LD from human liver (Homo sapiens, UniProt P00338); details: previously reported, mean ± 2 SD; cited from earlier work
T2 construct: Human tissue extracts were prepared by sonic disruption; from tissue; host or cells: human liver, crude extract (sonicated, supernatant of centrifugation)

LD from human liver [12] = biological target: T2, LD from human liver; test: Inhibition of LD activity in human liver extract by high pyruvate, without preincubation (present method); type: biochemical
Experimental: as §1, §2, §3

[13] = present method, mean ± 2 SD, at least seven sources

Compound: CC(=O)C(=O)[O-].[Na+] [pyruvate, Sodium pyruvate]
- Percent inhibition, Heart (LD from human heart [1]; 5 mmol/liter pyruvate, pH 6): 90%
- Percent inhibition, Heart (LD from human heart [1]; 5 mmol/liter pyruvate, pH 7): 69%
- Percent inhibition, Heart (LD from human heart [1]; 5 mmol/liter pyruvate, pH 8): 40%
- Percent inhibition, Heart (LD from human heart [1]; 10 mmol/liter pyruvate, pH 6): 91%
- Percent inhibition, Heart (LD from human heart [1]; 10 mmol/liter pyruvate, pH 7): 79%
- Percent inhibition, Heart (LD from human heart [1]; 10 mmol/liter pyruvate, pH 8): 50%
- Percent inhibition, Present method, Heart (LD from human heart [1]; [13]): 60.8 ± 10.8%
- Percent inhibition, Present method, Spleen (LD from human spleen [2]): 43.5 ± 9.0%
- Percent inhibition, Preincubation method, Brain (LD from human brain [3]): 59.0 ± 6.6%
- reaction rate, % of the maximum velocity (rabbit muscle LD; 3.4 mmol/liter pyruvate): 114%
- inhibition of rabbit muscle LD (rabbit muscle LD; 10 mmol/liter pyruvate): 2%
- Percent inhibition, Present method, Kidney (LD from human kidney [4]): 53.1 ± 5.0%
- Percent inhibition, Preincubation method, Heart (LD from human heart [5]): 61.1 ± 8.3%
- pH for maximum inhibition of LD activity (chicken heart LD): 7
- inhibition of chicken heart LD (chicken heart LD; pH 8 and above): no inhibition was seen
- Percent inhibition, Present method, Muscle (LD from human muscle [6]): 16.1 ± 11.8%
- Percent inhibition, Preincubation method, Muscle (LD from human muscle [7]): 17.3 ± 12.2%
- inhibition of the M-type LD (M-type LD): slight inhibition
- Percent inhibition, Preincubation method, Kidney (LD from human kidney [8]): 53.0 ± 15.1%
- inhibition of the H-type LD (H-type LD): more than 50%
- Percent inhibition, Present method, Brain (LD from human brain [9]): 50.6 ± 8.4%
- Percent inhibition, Preincubation method, Spleen (LD from human spleen [10]): 41.3 ± 8.5%
- Percent inhibition, Preincubation method, Liver (LD from human liver [11]): 18.3 ± 10.0%
- Percent inhibition, Liver (LD from human liver [12]; 5 mmol/liter pyruvate, pH 6): 53%
- Percent inhibition, Liver (LD from human liver [12]; 5 mmol/liter pyruvate, pH 7): 20%
- Percent inhibition, Liver (LD from human liver [12]; 5 mmol/liter pyruvate, pH 8, negative sign = increased rate): -19%
- Percent inhibition, Liver (LD from human liver [12]; 10 mmol/liter pyruvate, pH 6): 65%
- Percent inhibition, Liver (LD from human liver [12]; 10 mmol/liter pyruvate, pH 7): 50%
- Percent inhibition, Liver (LD from human liver [12]; 10 mmol/liter pyruvate, pH 8, negative sign = increased rate): -14%
- Percent inhibition, Present method, Liver (LD from human liver [12]; [13]): 17.6 ± 11.8%
